Data: US8329644B2, “Lantibiotic-based compounds having antimicrobial activity” (Novacta Biosystems Limited, priority 2007, dated 2012)
In brackets after ≈: the same amount, converted by molar mass. Several values for one entry are separate records, joined by “and”; a condition that tells them apart may be missing. Identical values can stand only once.

What was measured:
E. faecium = test: MIC susceptibility testing, E. faecium; type: cell-based
Description: (§1) Susceptibility testing for all aerobic organisms with the exception of Streptococcus pneumoniae was performed by two-fold serial antibiotic dilutions in Mueller-Hinton Broth supplemented with 50 μg/ml Ca^2+ unless otherwise noted. Susceptibility testing for S. pneumoniae was performed by two-fold serial antibiotic dilutions in Brain-Heart-Infusion Broth supplemented with 50 μg/ml Ca^2+ unless otherwise noted. Actively growing broth cultures were diluted to contain […] by adjusting to an OD600 of 0.2-0.3. They were then diluted a further 1:100 in fresh sterile broth. The assays were performed in duplicate in sterile 96-well microtitre plates in a total volume of 200 μl (160 μl broth, 20 μl antimicrobial agent, 20 μl inoculum) in a concentration range from 64 μg/ml to 0.06 μg/ml. […] Clinical isolates of Clostridium difficile were tested in Wilkins-Chalgren Anaerobe Agar under anaerobic conditions. In all cases, vancomycin was used as a reference antibiotic

E. faecalis = test: MIC susceptibility testing, E. faecalis; type: cell-based
Description: as §1

[1] = Stability in simulated intestinal fluid (SIF); type: in vitro ADME; conditions: 37° C., analytical HPLC
Description: Nisin, mersacidin, compound I and compound III were tested for their susceptibility towards enzymatic digestion in the stomach. Nisin, mersacidin and compound III were tested for their susceptibility towards enzymatic digestion in the intestine. The SGF and SIF were based on the standard USP solutions for simulated gastric and simulated intestinal fluids and their activity confirmed against Bovine Serum Albumin (Hilger et al, Clin. Exp. Immunol. 2001, 123, 387-94). The compounds were incubated in SGF or SIF at 37° C. and their concentrations quantified by analytical HPLC (UV detection at 210 nm). The potential degradation of each compound was also monitored qualitatively by measuring in vitro antibacterial activity against Micrococcus luteus.
The rapid degradation of nisin in this medium supports the observation that the clinical utility of nisin for the treatment of colonic infections is very limited unless the compound can be protected from degradative enzymes by means of careful formulation.

CCC(C)[C@@H]1NC(=O)[C@H](C(C)C)NC(=O)[C@H]2NC(=O)CNC(=O)[C@@H]3CS[C@@H](C)[C@@H](NC(=O)[C@H]4CSC[C@H](N)C(=O)N[C@@H](CO)C(=O)NCC(=O)N[C@@H](Cc5c[nH]c6ccccc56)C(=O)N[C@@H](C(C)C)C(=O)N4)C(=O)N[C@@H](CC(C)C)C(=O)N[C@@H](C(=O)N[C@@H](C(C)CC)C(=O)N[C@@H](CCC(=O)O)C(=O)N3)[C@H](C)SC[C@H](NC1=O)C(=O)N[C@@H](C)C(=O)N[C@H](C(=O)NCCO)C[S+]([O-])[C@H]2C (stereo partly drawn) [Compound III, Actagardine N-[2-ethanolamine]monocarboxamide]
MIC (E. faecium; E. faecium 19579, Table 2): 16 µg/mL (≈ 8.28 µM)
MIC (E. faecium; E. faecium 19579, Vancomycin sensitive enterococci, Table 3): 16 µg/mL (≈ 8.28 µM)
MIC (E. faecium; E. faecium 7131121, Table 2): 64 µg/mL (≈ 33.1 µM)
MIC (E. faecium; E. faecium 7634337, Vancomycin resistant enterococci, Table 3): >32 µg/mL
MIC (E. faecium; E. faecium 7662769, Vancomycin resistant enterococci, Table 3): >32 µg/mL
MIC (E. faecium; E. faecium 7865229, Vancomycin sensitive enterococci, Table 3): >32 µg/mL
MIC (E. faecium; E. faecium 7865532, Vancomycin resistant enterococci, Table 3): >32 µg/mL
MIC (E. faecium; E. faecium 9709024, Vancomycin resistant enterococci, Table 3): >32 µg/mL
MIC (E. faecium; E. faecium 9710577, Vancomycin resistant enterococci, Table 3): >32 µg/mL
Minimal Inhibitory Concentration (MIC) (E. faecium; E. faecium (VRE) (clinical isolate), Table 5, first isolate): 64 µg/mL
Minimal Inhibitory Concentration (MIC) (E. faecium; E. faecium (VRE) (clinical isolate), Table 5, second isolate): 4 µg/mL
Minimal Inhibitory Concentration (MIC) (E. faecium; E. faecium (VSE) ATCC 19579, Table 5): 16 µg/mL
Minimal Inhibitory Concentration (MIC) (E. faecium; E. faecium (VSE) ATCC 29212, Table 5): 4 µg/mL
MIC (E. faecium; E. faecium GRL05031, Vancomycin resistant enterococci, Table 3): 4 µg/mL (≈ 2.07 µM)
MIC (E. faecium; E. faecium GRL05032, Vancomycin resistant enterococci, Table 3): 4 µg/mL (≈ 2.07 µM)
MIC (E. faecium; E. faecium GRL05033, Vancomycin resistant enterococci, Table 3): 8 µg/mL and 4 µg/mL
MIC (E. faecium; E. faecium GRL05034, Vancomycin resistant enterococci, Table 3): 16 µg/mL (≈ 8.28 µM)
MIC (E. faecium; E. faecium GRL05035, Vancomycin resistant enterococci, Table 3): 16 µg/mL (≈ 8.28 µM)
MIC (E. faecalis; E. faecalis 29212, Table 2): 4 µg/mL (≈ 2.07 µM)
MIC (E. faecalis; E. faecalis 7754422, Vancomycin sensitive enterococci, Table 3): 8 µg/mL (≈ 4.14 µM)
MIC (E. faecalis; E. faecalis GRL05023, Vancomycin sensitive enterococci, Table 3): 8 µg/mL (≈ 4.14 µM)
MIC (E. faecalis; E. faecalis GRL05024, Vancomycin sensitive enterococci, Table 3): 8 µg/mL (≈ 4.14 µM)
MIC (E. faecalis; E. faecalis GRL05026, Vancomycin sensitive enterococci, Table 3): 8 µg/mL (≈ 4.14 µM)
MIC (E. faecalis; E. faecalis GRL05027, Vancomycin sensitive enterococci, Table 3): 8 µg/mL (≈ 4.14 µM)
MIC (E. faecalis; E. faecalis GRL05029, Vancomycin sensitive enterococci, Table 3): 4 µg/mL (≈ 2.07 µM)
MIC (E. faecalis; E. faecalis GRL05030, Vancomycin sensitive enterococci, Table 3): 4 µg/mL (≈ 2.07 µM)
stability in SIF [1]: essentially stable
